pIC50: −log10 of the molar value. Values joined by “and” are separate entries in the source; they are usually repeats but may differ in a detail not shown here. Equal values may be shown once.
Tested on: 832693-133-R-J1-PDC multi-cell spheroids, viability
Assay: Anticancer human tumor 832693-133-R-J1-PDC patient-derived head and neck squamous carcinoma cell line growth inhibition [IpAb]
Conditions: for viability, T/C: stronger effect = lower value
Summary of the method: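 Spheroids of 60% malignant cells, 25% HUVEC and 15% MSC were exposed to targeted agents combined with ipatasertib or abemaciclib. Doses started at or near clinical Cmax (10 microM when unknown) and fell in half-log steps.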

[1] = curve of first compound, second compound 0.01 µM
[2] = curve of first compound, second compound 0.0316 µM
[3] = curve of first compound, second compound 0.1 µM
[4] = curve of first compound, second compound 0.316 µM
[5] = curve of first compound, second compound 1 µM
[6] = second compound 0.01 µM, first compound 0.0316 µM
[7] = second compound 0.01 µM, first compound 0.1 µM
[8] = second compound 0.01 µM, first compound 0.316 µM
[9] = second compound 0.01 µM, first compound 1 µM
[10] = second compound 0.01 µM, first compound 3.16 µM
[11] = second compound 0.01 µM, first compound 10 µM
[12] = second compound 0.0316 µM, first compound 0.0316 µM
[13] = second compound 0.0316 µM, first compound 0.1 µM
[14] = second compound 0.0316 µM, first compound 0.316 µM
[15] = second compound 0.0316 µM, first compound 1 µM
[16] = second compound 0.0316 µM, first compound 3.16 µM
[17] = second compound 0.0316 µM, first compound 10 µM
[18] = second compound 0.1 µM, first compound 0.0316 µM
[19] = second compound 0.1 µM, first compound 0.1 µM
[20] = second compound 0.1 µM, first compound 0.316 µM
[21] = second compound 0.1 µM, first compound 1 µM
[22] = second compound 0.1 µM, first compound 3.16 µM
[23] = second compound 0.1 µM, first compound 10 µM
[24] = second compound 0.316 µM, first compound 0.0316 µM
[25] = second compound 0.316 µM, first compound 0.1 µM
[26] = second compound 0.316 µM, first compound 0.316 µM
[27] = second compound 0.316 µM, first compound 1 µM
[28] = second compound 0.316 µM, first compound 3.16 µM
[29] = second compound 0.316 µM, first compound 10 µM
[30] = second compound 1 µM, first compound 0.0316 µM
[31] = second compound 1 µM, first compound 0.1 µM
[32] = second compound 1 µM, first compound 0.316 µM
[33] = second compound 1 µM, first compound 1 µM
[34] = second compound 1 µM, first compound 3.16 µM
[35] = second compound 1 µM, first compound 10 µM
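Further: spheroids exposed to the drugs for one week before the viability readout.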
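Wherever viability, T/C is given: 100% = DMSO vehicle control wells.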

CC(C)(C)c1cnc(CSc2cnc(NC(=O)C3CCNCC3)s2)o1 + CCN1CCN(Cc2ccc(Nc3ncc(F)c(-c4cc(F)c5nc(C)n(C(C)C)c5c4)n3)nc2)CC1
pIC50 [1]: 6.24
pIC50 [2]: 6.65
pIC50 [3]: 6.79
pIC50 [4]: 6.83
pIC50 [5]: 6.87
viability, T/C (second compound 0.01 µM, first compound 0.00949 µM): 107%
viability, T/C (second compound 0.01 µM, first compound 0.03 µM): 125%
viability, T/C (second compound 0.01 µM, first compound 0.0949 µM): 157%
viability, T/C (second compound 0.01 µM, first compound 0.3 µM): 114%
viability, T/C (second compound 0.01 µM, first compound 0.949 µM): 0.93%
viability, T/C (second compound 0.01 µM, first compound 3 µM): 1.32%
viability, T/C (second compound 0.0316 µM, first compound 0.00949 µM): 97.8%
viability, T/C (second compound 0.0316 µM, first compound 0.03 µM): 112%
viability, T/C (second compound 0.0316 µM, first compound 0.0949 µM): 133%
viability, T/C (second compound 0.0316 µM, first compound 0.3 µM): 27.8%
viability, T/C (second compound 0.0316 µM, first compound 0.949 µM): 0.9%
viability, T/C (second compound 0.0316 µM, first compound 3 µM): 1.39%
viability, T/C (second compound 0.1 µM, first compound 0.00949 µM): 73.8%
viability, T/C (second compound 0.1 µM, first compound 0.03 µM): 93.5%
viability, T/C (second compound 0.1 µM, first compound 0.0949 µM): 104%
viability, T/C (second compound 0.1 µM, first compound 0.3 µM): 6.06%
viability, T/C (second compound 0.1 µM, first compound 0.949 µM): 0.75%
viability, T/C (second compound 0.1 µM, first compound 3 µM): 1.11%
viability, T/C (second compound 0.316 µM, first compound 0.00949 µM): 66.7%
viability, T/C (second compound 0.316 µM, first compound 0.03 µM): 77.5%
viability, T/C (second compound 0.316 µM, first compound 0.0949 µM): 100%
viability, T/C (second compound 0.316 µM, first compound 0.3 µM): 1.34%
viability, T/C (second compound 0.316 µM, first compound 0.949 µM): 1.19%
viability, T/C (second compound 0.316 µM, first compound 3 µM): 1.26%
viability, T/C (second compound 1 µM, first compound 0.00949 µM): 67.9%
viability, T/C (second compound 1 µM, first compound 0.03 µM): 81.3%
viability, T/C (second compound 1 µM, first compound 0.0949 µM): 70.7%
viability, T/C (second compound 1 µM, first compound 0.3 µM): 1.74%
viability, T/C (second compound 1 µM, first compound 0.949 µM): 1.59%
viability, T/C (second compound 1 µM, first compound 3 µM): 1.53%

CC(=O)c1c(C)c2cnc(Nc3ccc(N4CCNCC4)cn3)nc2n(C2CCCC2)c1=O
viability, T/C (compound 0.000949 µM): 87.4% and 105%
viability, T/C (compound 0.003 µM): 87.3% and 96.4%
viability, T/C (compound 0.00949 µM): 79.2% and 84.6%
viability, T/C (compound 0.03 µM): 66.9% and 69.8%
viability, T/C (compound 0.0949 µM): 69.9% and 64.3%
viability, T/C (compound 0.3 µM): 51% and 55.9%
pIC50 (curve of compound): < 6.52

CC(C)(C)c1cnc(CSc2cnc(NC(=O)C3CCNCC3)s2)o1
viability, T/C (compound 0.00949 µM): 115% and 100%
viability, T/C (compound 0.03 µM): 127%
viability, T/C (compound 0.0949 µM): 143% and 156%
viability, T/C (compound 0.3 µM): 111% and 164%
viability, T/C (compound 0.949 µM): 1.31% and 0.89%
viability, T/C (compound 3 µM): 1.26% and 1.3%
pIC50 (curve of compound): 6.24 and 6.20

Cn1nccc1Nc1nccc(-c2ccn(C(CO)c3ccc(Cl)c(F)c3)c(=O)c2)n1 (stereo unspecified) + CCN1CCN(Cc2ccc(Nc3ncc(F)c(-c4cc(F)c5nc(C)n(C(C)C)c5c4)n3)nc2)CC1
pIC50 [1]: 5.94
pIC50 [2]: 6.07
pIC50 [3]: 6.35
pIC50 [4]: 6.21
pIC50 [5]: 5.27
viability, T/C [6]: 87.8%
viability, T/C [7]: 83.6%
viability, T/C [8]: 67.6%
viability, T/C [9]: 55.9%
viability, T/C [10]: 31.9%
viability, T/C [11]: 30.3%
viability, T/C [12]: 78%
viability, T/C [13]: 68.1%
viability, T/C [14]: 61.2%
viability, T/C [15]: 52.7%
viability, T/C [16]: 31%
viability, T/C [17]: 34.2%
viability, T/C [18]: 70.7%
viability, T/C [19]: 59.5%
viability, T/C [20]: 53.7%
viability, T/C [21]: 47.2%
viability, T/C [22]: 27.1%
viability, T/C [23]: 32.3%
viability, T/C [24]: 68.7%
viability, T/C [25]: 59.5%
viability, T/C [26]: 53.3%
viability, T/C [27]: 50.5%
viability, T/C [28]: 36.8%
viability, T/C [29]: 31.9%
viability, T/C [30]: 74.9%
viability, T/C [31]: 82.7%
viability, T/C [32]: 63.6%
viability, T/C [33]: 62.7%
viability, T/C [34]: 57.8%
viability, T/C [35]: 43.2%

C=CC(=O)N1CCN(c2nc(=O)n(-c3c(C)ccnc3C(C)C)c3nc(-c4c(O)cccc4F)c(F)cc23)C(C)C1 (stereo unspecified) + CCN1CCN(Cc2ccc(Nc3ncc(F)c(-c4cc(F)c5nc(C)n(C(C)C)c5c4)n3)nc2)CC1
pIC50 [1]: < 5.00
pIC50 [2]: < 5.00
pIC50 [3]: < 5.00
pIC50 [4]: < 5.00
pIC50 [5]: < 5.00
viability, T/C [6]: 96.7%
viability, T/C [7]: 104%
viability, T/C [8]: 105%
viability, T/C [9]: 109%
viability, T/C [10]: 117%
viability, T/C [11]: 104%
viability, T/C [12]: 89.5%
viability, T/C [13]: 89.6%
viability, T/C [14]: 90.5%
viability, T/C [15]: 92.2%
viability, T/C [16]: 115%
viability, T/C [17]: 95%
viability, T/C [18]: 68.8%
viability, T/C [19]: 78.8%
viability, T/C [20]: 73.3%
viability, T/C [21]: 82.9%
viability, T/C [22]: 101%
viability, T/C [23]: 86.3%
viability, T/C [24]: 58.3%
viability, T/C [25]: 59.3%
viability, T/C [26]: 64%
viability, T/C [27]: 64.9%
viability, T/C [28]: 77.5%
viability, T/C [29]: 84.2%
viability, T/C [30]: 53.8%
viability, T/C [31]: 58.9%
viability, T/C [32]: 65.5%
viability, T/C [33]: 73.7%
viability, T/C [34]: 82.4%
viability, T/C [35]: 98.4%

COc1c(OCCCN2CCOCC2)ccc2c3n(c(=NC(=O)c4cnc(N)nc4)nc12)CCN3
viability, T/C (compound 0.00316 µM): 93.8% and 99%
viability, T/C (compound 0.01 µM): 67.5% and 74.3%
viability, T/C (compound 0.0316 µM): 21.3% and 29.8%
viability, T/C (compound 0.1 µM): 9.21% and 9.49%
viability, T/C (compound 0.316 µM): 4.67% and 4.86%
viability, T/C (compound 1 µM): 4.72% and 4.34%
pIC50 (curve of compound): 7.81 and 7.73

CC1(C)CCC(CN2CCN(c3ccc(C(=O)NS(=O)(=O)c4ccc(NCC5CCOCC5)c([N+](=O)[O-])c4)c(Oc4cnc5[nH]ccc5c4)c3)CC2)=C(c2ccc(Cl)cc2)C1 + CCN1CCN(Cc2ccc(Nc3ncc(F)c(-c4cc(F)c5nc(C)n(C(C)C)c5c4)n3)nc2)CC1
pIC50 [1]: 5.27
pIC50 [2]: 5.18
pIC50 [3]: 5.38
pIC50 [4]: 5.39
pIC50 [5]: 5.34
viability, T/C [6]: 93.7%
viability, T/C [7]: 104%
viability, T/C [8]: 102%
viability, T/C [9]: 96.1%
viability, T/C [10]: 75.2%
viability, T/C [11]: 21.2%
viability, T/C [12]: 89%
viability, T/C [13]: 93.9%
viability, T/C [14]: 85.8%
viability, T/C [15]: 86.5%
viability, T/C [16]: 83.6%
viability, T/C [17]: 30.4%
viability, T/C [18]: 73.1%
viability, T/C [19]: 69%
viability, T/C [20]: 78.1%
viability, T/C [21]: 71.2%
viability, T/C [22]: 60.4%
viability, T/C [23]: 17.7%
viability, T/C [24]: 55.6%
viability, T/C [25]: 61%
viability, T/C [26]: 51.9%
viability, T/C [27]: 67.3%
viability, T/C [28]: 75.5%
viability, T/C [29]: 9.24%
viability, T/C [30]: 63.9%
viability, T/C [31]: 72.1%
viability, T/C [32]: 80.2%
viability, T/C [33]: 68.5%
viability, T/C [34]: 72.9%
viability, T/C [35]: 5.47%
